Test results: US20250319025A9, “COMPOSITIONS COMPRISING MODIFIED PHOSPHOLIPIDS AND USES THEREOF” (priority 2021, published 2025)
Where “and” joins values, the source holds several entries; their conditions need not be identical. Identical values can stand only once. Counter-ions that a name gives are not always drawn. Like-named read-outs stand apart in the source and are kept apart here.

How the values were obtained:
[1] = Phase transition temperature of acyl chain-modified phospholipids; type: physicochemical
[2] = Drug loading of payloads in liposomes (thin-film hydration; quantitated after liposome disruption); type: physicochemical
[3] = In vitro cumulative drug release by dialysis at 37° C.; type: physicochemical
[4] = pH 7.4
[5] = physchem; details: pH 4
[6] = test system: C2C12 mouse myoblasts
[7] = test system: PC12 rat adrenal gland pheochromocytoma cells
[8] = test system: sciatic nerve; details: rat, in vivo
[9] = test system: sciatic nerve; test: Motor nerve block, weight-bearing test; details: rat, in vivo
Procedure: Motor nerve block was assessed by a weight-bearing test to determine the motor strength of the rat's hind paw. The rat was positioned with one hind paw on a digital balance and was allowed to bear its own weight. The maximum weight that the rat could bear without the ankle touching the balance was recorded, and motor block was considered achieved when the motor strength was less than half maximal. Measurements were repeated three times at each time point and the median was used for further data analysis.
Duration of sensory block were calculated as the time required for thermal latency to return to 7 seconds (halfway between the baseline and maximal latencies). The duration of motor block was defined as the time it took for the weight-bearing to return to halfway between normal and maximal block.

[10] = test system: sciatic nerves and surrounding tissues; details: rat, in vivo
[11] = cited from earlier work
[12] = payload in aromatized liposomes containing Ph-DPPC (Lipo-Ph)
[13] = first 24 h, Lipo-Ph versus Lipo
[14] = payload from aromatized liposomes, 37° C.

In the case of “1-palmitoyl-2-(16-coumarin)palmitoyl-sn-glycero-3-phosphocholine [CM-DPPC]”, the “phase transition temperature (Tm)” value [1] is reported as 66.1 °C.

With CCN(CC)c1ccc2c(-c3ccc(S(=O)(=O)O)cc3S(=O)(=O)[O-])c3ccc(=[N+](CC)CC)cc-3oc2c1 [SRho, sulforhodamine B] the “Drug loading, Lipo” value [2] was 2.6 ± 0.3%, the Increase in loading ([2]; Lipo-Ph versus Lipo) was 19.2% and the “Drug loading, Lipo-Ph” value [2, 12] was 3.1 ± 0.2%. The “Cumulative release in first 24 h, Lipo” value [3] was 12.2 ± 0.5%, the Decrease in release [3, 13] was 51.6% and the “Cumulative release in first 24 h, Lipo-Ph” value (“Cumulative release … Lipo-Ph” for short) [3, 14] was 5.9 ± 0.7%. For the same molecule, the “time within which free dye was released” value ([3]; unencapsulated SRho in the release set-up) was at most 6 h and the “log P (octanol-water partition coefficient)” value [4] was −0.53.

For CCCCCCCCCCCCCCCC(=O)OC[C@H](COP(=O)([O-])OCC[N+](C)(C)C)OC(=O)CCCCCCCCCCCCCCCOc1ccccc1 [Ph-DPPC, 1-palmitoyl-2-(16-phenoxy)palmitoyl-sn-glycero-3-phosphocholine], the “phase transition temperature (Tm)” value [1] was 47.4 °C.

With COc1cccc2c1C(=O)c1c(O)c3c(c(O)c1C2=O)C[C@@](O)(C(=O)CO)C[C@@H]3O[C@H]1C[C@H](N)[C@H](O)[C@H](C)O1 [Dox, doxorubicin hydrochloride] the “Drug loading, Lipo” value [2] was 0.8 ± 0.1%, the Increase in loading ([2]; Lipo-Ph versus Lipo) was 30.4% and the “Drug loading, Lipo-Ph” value [2, 12] was 1.1 ± 0.1%. For the same molecule, the “Cumulative release in first 24 h, Lipo” value [3] was 26.8 ± 1.1%, the Decrease in release [3, 13] was 34.3% and the “Cumulative release … Lipo-Ph” value [3, 14] was 17.6 ± 1.0%. The logP [5] was -0.22.

With Oc1ccccc1 [Phenol, phenol] the “cytotoxicity, C2C12” value [6] was “intrinsically toxic” and the “cytotoxicity, PC12” value [7] was “intrinsically toxic”.

For tetrodotoxin [TTX], the “Drug loading, Lipo” value [2] was 0.11 ± 0.01%, the “Drug loading, Lipo-Ph” value [2] was 0.13 ± 0.01% and the Increase in loading [2] was 25.5%. For the same molecule, the “Cumulative release in first 24 h, Lipo” value [3] was 17.1 ± 0.3%, the “Cumulative release … Lipo-Ph” value [3] was 11.3 ± 0.4% and the Decrease in release [3] was 34.0%. For the same molecule, the “TTX released after 8 hours” value [3] was “More than 95%”, the “Duration of nerve block” value [8] was 2.5 ± 0.6 h and 2.5 h and the nerve block [8] was “did not induce detectable nerve block”. For the same molecule, the sensory nerve block [8] was “no detectable block”, the “difference between the duration of sensory and motor nerve block” value [9] was “no statistically significant difference” and the “Inflammation Scores, Day 4” value [10] was 0. For the same molecule, the “Inflammation Scores, Day 14” value [10] was 0 (0-0), the “Myotoxicity Scores, Day 4” value [10] was 0 and the “Myotoxicity Scores, Day 14” value [10] was 0. For the same molecule, the “log P (octanol-water partition coefficient)” value [4] was 0.13 and the “Log P” value [11] was −6.2.

In the case of CCCCN1CCCCC1C(=O)Nc1c(C)cccc1C (stereo not shown) [Bup, bupivacaine hydrochloride], the “Drug loading, Lipo” value [2] is reported as 3.5 ± 0.7%, the Increase in loading ([2]; Lipo-Ph versus Lipo) is reported as 60.0% and the “Drug loading, Lipo-Ph” value [2, 12] is reported as 5.6 ± 0.8%. For the same molecule, the “Cumulative release in first 24 h, Lipo” value [3] was 70.7 ± 1.9%, the Decrease in release [3, 13] was 47.7% and the “Cumulative release … Lipo-Ph” value [3, 14] was 37.0 ± 2.7%. The logP [5] was -0.27.
